Patent US7566712B2, “Biaryl piperazinyl-pyridine analogues” (Neurogen Corporation, priority 2003, dated 2009)

Biological target: T1, human capsaicin receptor (Homo sapiens, UniProt Q8NER1)
T1 construct: pBK-CMV expression construct encoding the full length human capsaicin receptor; expressed in transfected cells
Assay: Calcium mobilization assay, determination of antagonist activity (Example 6)
Assay type: cell-based
Conditions: Table II
In short: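 Antagonism measured as inhibition of capsaicin-evoked (final concentration = EC50, from an 8-point 1 nM–3 μM curve) Fluo-3 calcium signal in stable hVR1-HEK293 cells. Test compounds at 1–5 μM final, 0.5–6 h dark preincubation at room temperature. IC50 = concentration giving 50% reduction versus agonist-only response.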

[1] = determined as described in Example 6 (antagonist activity), "*" = 1 micromolar or less
[2] = IC50 determined as described in Example 6 (antagonist activity, calcium mobilization)

T1 sequence (Q8NER1 whole entry): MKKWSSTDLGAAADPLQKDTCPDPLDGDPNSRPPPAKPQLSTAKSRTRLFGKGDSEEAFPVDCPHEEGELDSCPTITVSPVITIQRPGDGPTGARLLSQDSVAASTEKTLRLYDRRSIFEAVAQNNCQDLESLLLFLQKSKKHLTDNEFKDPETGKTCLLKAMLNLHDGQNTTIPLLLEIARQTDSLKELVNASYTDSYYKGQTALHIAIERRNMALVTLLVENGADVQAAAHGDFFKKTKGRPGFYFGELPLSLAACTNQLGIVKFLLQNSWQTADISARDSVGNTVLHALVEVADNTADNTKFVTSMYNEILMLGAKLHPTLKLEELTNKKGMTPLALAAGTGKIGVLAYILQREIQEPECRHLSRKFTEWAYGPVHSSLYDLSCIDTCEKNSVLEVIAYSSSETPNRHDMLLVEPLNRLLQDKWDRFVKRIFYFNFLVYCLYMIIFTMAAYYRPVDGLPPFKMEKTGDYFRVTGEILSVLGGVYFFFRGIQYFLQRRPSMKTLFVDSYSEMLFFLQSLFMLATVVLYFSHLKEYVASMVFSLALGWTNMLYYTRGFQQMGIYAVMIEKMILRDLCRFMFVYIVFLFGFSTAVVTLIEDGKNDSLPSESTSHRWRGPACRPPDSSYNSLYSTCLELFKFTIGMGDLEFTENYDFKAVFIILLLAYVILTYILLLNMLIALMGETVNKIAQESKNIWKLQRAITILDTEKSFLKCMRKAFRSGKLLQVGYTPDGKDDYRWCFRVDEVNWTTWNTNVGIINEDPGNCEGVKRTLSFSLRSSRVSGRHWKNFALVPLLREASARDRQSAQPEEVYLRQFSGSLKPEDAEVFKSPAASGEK

Structure (SMILES) | IC50 [1] | IC50 [2]
C[C@H]1CN(c2ncccc2Cl)CCN1c1cc(-c2ccc(Cl)c(F)c2)nc(Cl)n1 [Example 953, 2-chloro-4-(4-chloro-3-fluorophenyl)-6-[(2S)-4-(3-chloropyridin-2-yl)-2-methylpiperazin-1-yl]pyrimidine] | ≤ 1000 nM | –
COc1ccc(Cl)c(N2CCN(c3cc(-c4ccc(F)cc4)nc(N4CCCC4C)n3)[C@H](C)C2)n1 (stereo partly shown) [Example 955, 4-[4-(3-chloro-6-methoxypyridin-2-yl)-2-methylpiperazin-1-yl]-6-(4-fluorophenyl)-2-(2-methylpyrrolidin-1-yl)pyrimidine] | ≤ 1000 nM | –
C[C@H]1CN(c2nccnc2Cl)CCN1c1cc(-c2ccc(Cl)c(F)c2)nc(Cl)n1 [Example 956, 2-chloro-4-(4-chloro-3-fluorophenyl)-6-[(2S)-4-(3-chloropyrazin-2-yl)-2-methylpiperazin-1-yl]pyrimidine] | ≤ 1000 nM | –
C[C@H]1CN(c2ncccc2Cl)CCN1c1cc(-c2ccc(Cl)c(F)c2)nc(N2CCCC2)n1 [Example 957, 4-(4-chloro-3-fluorophenyl)-6-[(2S)-4-(3-chloropyridin-2-yl)-2-methylpiperazin-1-yl]-2-pyrrolidin-1-ylpyrimidine] | ≤ 1000 nM | –
C[C@@H]1CCCN1c1nc(-c2ccc(Cl)c(F)c2)cc(N2CCN(c3ncccc3Cl)C[C@@H]2C)n1 [Example 958, 4-(4-chloro-3-fluorophenyl)-6-[(2S)-4-(3-chloropyridin-2-yl)-2-methylpiperazin-1-yl]-2-[(2R)-2-methylpyrrolidin-1-yl]pyrimidine] | ≤ 1000 nM | –
C[C@H]1CN(c2ncccc2Cl)CCN1c1cc(-c2ccc(Cl)c(F)c2)nc(N2CCOCC2)n1 [Example 959, 4-{4-(4-chloro-3-fluorophenyl)-6-[(2S)-4-(3-chtoropyridin-2-yl)-2-methylpiperazin-1-yl]pyrimidin-2-yl}morpholine] | ≤ 1000 nM | –
C[C@@H]1CCCN1c1cc(-c2ccc(Cl)c(F)c2)nc(N2CCN(c3ncccc3Cl)C[C@@H]2C)n1 [Example 960, 4-(4-chloro-3-fluorophenyl)-2-[(2S)-4-(3-chloropyridin-2-yl)-2-methylpiperazin-1-yl]-6-[(2R)-2-methylpyrrolidin-1-yl]pyrimidine] | ≤ 1000 nM | –
C[C@H]1CN(c2nccnc2Cl)CCN1c1cc(-c2ccc(Cl)c(F)c2)nc(N2CCCC2)n1 [Example 961, 4-(4-chloro-3-fluorophenyl)-6-[(2S)-4-(3-chloropyrazin-2-yl)-2-methylpiperazin-1-yl]-2-pyrrolidin-1-ylpyrimidine] | ≤ 1000 nM | –
C[C@H]1CN(c2nccnc2Cl)CCN1c1cc(-c2ccc(Cl)c(F)c2)nc(N2CCOCC2)n1 [Example 962, 4-{4-(4-chloro-3-fluorophenyl)-6-[(2S)-4-(3-chloropyrazin-2-yl)-2-methylpiperazin-1-yl]pyrimidin-2-yl}morpholine] | ≤ 1000 nM | –
C[C@@H]1CCCN1c1cc(-c2ccc(Cl)c(F)c2)nc(N2CCN(c3nccnc3Cl)C[C@@H]2C)n1 [Example 963, 4-(4-chloro-3-fluorophenyl)-2-[(2S)-4-(3-chloropyrazin-2-yl)-2-methylpiperazin-1-yl]-6-[(2R)-2-methylpyrrolidin-1-yl]pyrimidine] | ≤ 1000 nM | –
COc1ncc(Cl)c(N2CCN(c3cc(-c4ccc(F)cc4)nc(Cl)n3)[C@H](C)C2)n1 [Example 965, 5-chloro-4-{(3R)-4-[2-chloro-6-(4-fluorophenyl)pyrimidin-4-yl]-3-methylpiperazin-1-yl}-2-methoxypyrimidine] | ≤ 1000 nM | –
COc1ncc(Cl)c(N2CCN(c3cc(-c4ccc(F)cc4)nc(N4CCC[C@H]4C)n3)[C@H](C)C2)n1 [Example 966, 5-chloro-4-((3R)-4-{6-(4-fluorophenyl)-2-[(2R)-2-methylpyrrolidin-1-yl]pyrimidin-4-yl}-3-methylpiperazin-1-yl)-2-methoxypyrimidine] | ≤ 1000 nM | –
COc1ncc(Cl)c(N2CCN(c3cc(-c4ccc(F)cc4)nc(N4CCCC4)n3)[C@H](C)C2)n1 [Example 967, 5-chloro-4-{(3R)-4-[6-(4-fluorophenyl)-2-pyrrolidin-1-ylpyrimidin-4-yl]-3-methylpiperazin-1-yl}-2-methoxypyrimidine] | ≤ 1000 nM | –
COc1ncc(Cl)c(N2CCN(c3nc(-c4ccc(F)cc4)cc(N4CCC[C@H]4C)n3)[C@H](C)C2)n1 [Example 968, 5-chloro-4-((3R)-4-{4-(4-fluorophenyl)-6-[(2R)-2-methylpyrrolidin-1-yl]pyrimidin-2-yl}-3-methylpiperazin-1-yl)-2-methoxypyrimidine] | ≤ 1000 nM | –
CC1CCCN1c1nc(-c2ccc(F)cc2)cc(N2CCN(c3nc(O)ccc3Cl)C[C@H]2C)n1 (stereo partly shown) [Example 970, 5-chloro-6-{4-[6-(4-fluorophenyl)-2-(2-methylpyrrolidin-1-yl)pyrimidin-4-yl]-3-methylpiperazin-1-yl}pyridin-2-ol] | ≤ 1000 nM | –
C[C@H]1CN(c2nccnc2Cl)CCN1c1cc(-c2ccc(F)c(Cl)c2)nc(Cl)n1 [Example 971, 2-chloro-4-(3-chloro-4-fluorophenyl)-6-[(2S)-4-(3-chloropyrazin-2-yl)-2-methylpiperazin-1-yl]pyrimidine] | – | ≤ 1000 nM

Structure (SMILES) | IC50 [1] | IC50 [2]
COc1ncc(Cl)c(N2CCN(c3cc(-c4ccc(F)cc4)nc(N4CCOCC4)n3)[C@H](C)C2)n1 [Example 972, 4-[4-[(2R)-4-(5-chloro-2-methoxypyrimidin-4-yl)-2-methylpiperazin-1-yl]-6-(4-fluorophenyl)pyrimidin-2-yl]morpholine] | – | ≤ 1000 nM
C[C@@H]1CCCN1c1nc(-c2ccc(F)c(Cl)c2)cc(N2CCN(c3nccnc3Cl)C[C@@H]2C)n1 [Example 973, 4-(3-chloro-4-fluorophenyl)-6-[(2S)-4-(3-chloropyrazin-2-yl)-2-methylpiperazin-1-yl]-2-[(2R)-2-methylpyrrolidin-1-yl]pyrimidine] | – | ≤ 1000 nM
C[C@H]1CN(c2nccnc2Cl)CCN1c1cc(-c2ccc(F)c(Cl)c2)nc(N2CCCC2)n1 [Example 974, 4-(3-chloro-4-fluorophenyl)-6-[(2S)-4-(3-chloropyrazin-2-yl)-2-methylpiperazin-1-yl]-2-pyrrolidin-1-ylpyrimidine] | – | ≤ 1000 nM
C[C@H]1CN(c2nccnc2Cl)CCN1c1cc(-c2ccc(F)c(Cl)c2)nc(N2CCOCC2)n1 [Example 975, 4-{4-(3-chloro-4-fluorophenyl)-6-[(2S)-4-(3-chloropyrazin-2-yl)-2-methylpiperazin-1-yl]pyrimidin-2-yl}morpholine] | – | ≤ 1000 nM
Cc1ccc(-c2cc(N3CCN(c4nccnc4Cl)C[C@H]3C)nc(N3CCCC3)n2)cc1F [Example 978, 4-[(2R)-4-(3-chloropyrazin-2-yl)-2-methylpiperazin-1-yl]-6-(3-fluoro-4-methylphenyl)-2-pyrrolidin-1-ylpyrimidine] | – | ≤ 1000 nM
Cc1ccc(-c2cc(N3CCN(c4ncccc4Cl)C[C@H]3C)nc(N3CCC[C@H]3C)n2)cc1F [Example 979, 4-[(2R)-4-(3-chloropyridin-2-yl)-2-methylpiperazin-1-yl]-6-(3-fluoro-4-methylphenyl)-2-[(2R)-2-methylpyrrolidin-1-yl]pyrimidine] | – | ≤ 1000 nM
Cc1ccc(-c2cc(N3CCN(c4ncccc4Cl)C[C@H]3C)nc(N3CCOCC3)n2)cc1F [Example 980, 4-[4-[(2R)-4-(3-chloropyridin-2-yl)-2-methylpiperazin-1-yl]-6-(3-fluoro-4-methylphenyl)pyrimidin-2-yl]morpholine] | – | ≤ 1000 nM
Cc1ccc(-c2cc(N3CCN(c4nccnc4Cl)C[C@H]3C)nc(N3CCC[C@H]3C)n2)cc1F [Example 981, 4-[(2R)-4-(3-chloropyrazin-2-yl)-2-methylpiperazin-1-yl]-6-(3-fluoro-4-methylphenyl)-2-[(2R)-2-methylpyrrolidin-1-yl]pyrimidine] | – | ≤ 1000 nM
C[C@@H]1CN(c2ncccc2F)CCN1c1cc(-c2ccc(F)c(Cl)c2)nc(Cl)n1 [Example 983, 2-chloro-4-(3-chloro-4-fluorophenyl)-6-[(2R)-4-(3-fluoropyridin-2-yl)-2-methylpiperazin-1-yl]pyrimidine] | – | ≤ 1000 nM
C[C@@H]1CN(c2ncccc2Cl)CCN1c1cc(-c2ccc(F)c(Cl)c2)nc(N2CCC[C@@H]2C)n1 [Example 984, 4-(3-chloro-4-fluorophenyl)-6-[(2R)-4-(3-chloropyridin-2-yl)-2-methylpiperazin-1-yl]-2-[(2S)-2-methylpyrroiidin-1-yl]pyrimidine] | – | ≤ 1000 nM
C[C@H]1CN(c2ncccc2Cl)CCN1c1cc(-c2ccc(F)c(Cl)c2)nc(N2CCC[C@@H]2C)n1 [Example 985, 4-(3-chloro-4-fluorophenyl)-6-[(2S)-4-(3-chloropyridin-2-yl)-2-methylpiperazin-1-yl]-2-[(2S)-2-methylpyrrolidin-1-yl]pyrimidine] | – | ≤ 1000 nM
C[C@@H]1CN(c2nccnc2Cl)CCN1c1cc(-c2ccc(F)c(Cl)c2)nc(N2CCC[C@@H]2C)n1 [Example 986, 4-(3-chloro-4-fluorophenyl)-6-[(2R)-4-(3-chloropyrazin-2-yl)-2-methylpiperazin-1-yl]-2-[(2S)-2-methylpyrrolidin-1-yl]pyrimidine] | – | ≤ 1000 nM
C[C@H]1CN(c2nccnc2Cl)CCN1c1cc(-c2ccc(F)c(Cl)c2)nc(N2CCC[C@@H]2C)n1 [Example 987, 4-(3-chloro-4-fluorophenyl)-6-[(2S)-4-(3-chloropyrazin-2-yl)-2-methylpiperazin-1-yl]-2-[(2S)-2-methylpyrrolidin-1-yl]pyrimidine] | – | ≤ 1000 nM
C[C@@H]1CN(c2ccccc2F)CCN1c1cc(-c2ccc(F)c(Cl)c2)nc(N2CCC[C@@H]2C)n1 [Example 989, 4-(3-chloro-4-fluorophenyl)-6-[(2R)-4-(2-fluorophenyl)-2-methylpiperazin-1-yl]-2-[(2S)-2-methylpyrrolidin-1-yl]pyrimidlne] | – | ≤ 1000 nM
C[C@@H]1CN(c2ccccc2F)CCN1c1cc(-c2ccc(F)c(Cl)c2)nc(N2CCCC2)n1 [Example 990, 4-(3-chloro-4-fluorophenyl)-6-[(2R)-4-(2-fluorophenyl)-2-methylpiperazin-1-yl]-2-pyrrolidin-1-ylpyrimidine] | – | ≤ 1000 nM
